From patent US8759355B2, “Aryl pyrimidine derivatives, preparation methods and pharmaceutical uses thereof” (Institute of Pharmacology and Toxicology Academy of …, priority 2008, dated 2014) come the findings set out here.

In the first data set the target is T1, human PPARδ (Homo sapiens, UniProt Q03181).
T1 construct: expressed in transfected cells; host or cells: HEK-293 cells (transient co-transfection)
T1 sequence (Q03181 211-439 limits assumed): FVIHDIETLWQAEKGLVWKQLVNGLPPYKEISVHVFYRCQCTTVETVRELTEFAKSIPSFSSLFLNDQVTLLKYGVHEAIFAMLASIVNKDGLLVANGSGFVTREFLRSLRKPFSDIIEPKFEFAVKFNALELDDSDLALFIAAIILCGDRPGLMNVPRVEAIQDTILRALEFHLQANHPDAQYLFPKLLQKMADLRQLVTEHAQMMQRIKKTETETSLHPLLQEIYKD
As to the kind of experiment: Transfection determination: pM-hPPARδ/GAL4 chimeric receptor luciferase reporter, transient transfection in HEK-293 cells. The format is cell-based. The following applies: 1 μM, luciferase read 24 hours after administration, GW501516 positive control. The source says:
Transfection Determination
The functional titration of the transient transfection of the compounds in HEK-293 cells was screened to determine their ability to activate PPAR subtype. Chimeric acceptor system was built in advance to compare relative transcription activity of acceptor subtype to same target gene and prevent the complexness of endogenous acceptor activation due to the explanation of results. Ligand binding domain of human PPARδ was fused to yeast transcription factor GAL4DNA binding domain, and then linked to expression carrier pM of mammal to build pM-hPPARδ/GAL4 plasmids. GAL4DNA binding region was connected to pB4-tk-luc to pB4-RES-tk-luc (a report gene of firefly luciferin enzyme containing 5 templates of GAL4DNA binding site). pRL-CMV-Rluc was used as internal standard to correct transfection efficiency and endogenous influence and reduce experimental error.
HEK-293 cells were grown in 48 wells plate, the density of cells was 2-4×10^4/well. The culture medium was 1640 of 10% defatted FCS free of phenol red and antibiotics. After 48 hours, the culture medium was changed as 1640 of 5% defatted FCS free of phenol red and antibiotics, and then pM-hPPARδ/GAL4, pB4-RES-tk-luc and pRL-CMV-Rluc plasmids were co-transfected in HEK-293 cells. The drug was administered after 24 hours, and the luminous intensity of luciferin enzyme was determined 24 hours after administration. The control was 0.2% DMSO.
Consider `Cc1cc(SCc2ccnc(-c3ccc(F)cc3)n2)ccc1OC(C)(C)C(=O)O` [example 18, 2-methyl-2-{2-methyl-4-[2-(4-fluorophenyl)-pyrimidin-4-yl-methylthio]-phenoxy}-propionic acid], for which the “Activation ability % (Activation of part of compounds for PPARδ)” value amounted to 103.26%.
With `Cc1cc(SCc2ccnc(-c3ccc(Br)cc3)n2)ccc1OCC(=O)O` [example 10, {2-methyl-4-[2-(4-bromophenyl)-pyrimidin-4-yl-methylthio]-phenoxy}-acetic acid], the “Activation ability % (Activation of part of compounds for PPARδ)” value worked out at 108.55%.
With `Cc1cc(SCc2ccnc(-c3ccc(C(F)(F)F)cc3)n2)ccc1OCC(=O)O` [example 7, {2-methyl-4-[2-(4-trifluoromethylphenyl)-pyrimidin-4-yl-methylthio]phenoxy}-acetic acid], the “Activation ability % (Activation of part of compounds for PPARδ)” value is on record as 94.86%.
Same read-out and setting: the value for `Cc1cc(SCc2ccnc(-c3ccc(Cl)cc3)n2)ccc1OC(C)(C)C(=O)O` [example 17, 2-methyl-2-{2-methyl-4-[2-(4-chlorophenyl)-pyrimidin-4-yl-methylthio]-phenoxy}-propionic acid] was 119.51%; that for “2-methyl-2-{2-methyl-4-[2-(4-trichloromethylphenyl)-pyrimidin-4-yl-methylthio]-phenoxy}-propionic acid [example 20]” was 144.86%.
On the same count and under the same terms, the value for `Cc1cc(SCc2ccnc(-c3ccc(F)cc3)n2)ccc1OCC(=O)O` [example 8, {2-methyl-4-[2-(4-fluorophenyl)-pyrimidin-4-yl-methylthio]-phenoxy}-acetic acid] was 135.46%.
Same read-out and setting: with `Cc1cc(SCc2ccnc(-c3ccc(Cl)cc3)n2)ccc1OCC(=O)O` [example 9, {2-methyl-4-[2-(4-chlorophenyl)-pyrimidin-4-yl-methylthio]-phenoxy}-acetic acid] the figure was 88.35%.

Test system in a further data set: not given
Assay: not given
Conditions: not given
With `Cc1cc(SCc2ccnc(-c3ccc(F)cc3)n2)ccc1OC(C)(C)C(=O)O` [example 18, 2-methyl-2-{2-methyl-4-[2-(4-fluorophenyl)-pyrimidin-4-yl-methylthio]-phenoxy}-propionic acid], the melting point (commonly the temperature of the solid-liquid transition) was 139.5 to 140.4 °C.
On the same count and under the same terms, with `O=C(O)CCc1ccc(OCc2ccnc(-c3ccc(C(F)(F)F)cc3)n2)cc1` [Example 4, 3-{4-[2-(4-trifluoromethylphenyl)-pyrimidin-4-yl-methoxy]-phenyl}-propionic acid] the figure was 146.6 to 147.5 °C.
The same measure, in the same setting: with `O=C(O)CCc1ccc(OCc2ccnc(-c3c(F)cc(F)cc3F)n2)cc1` [Example 5, 3-{4-[2-(2,4,6-trifluorophenyl)-pyrimidin-4-yl-methoxy]-phenyl}-propionic acid] the figure was 143.8 to 144.1 °C; with `O=C(O)CCc1ccc(OCc2ccnc(-c3ccc(Cl)cc3)n2)cc1` [Example 2, 3-{4-[2-(4-chlorophenyl)-pyrimidin-4-yl-methoxy]-phenyl}-propionic acid], 168.3 to 169.4 °C; with `Cc1cc(SCc2ccnc(-c3ccc(C(F)(F)F)cc3)n2)ccc1OCC(=O)O` [example 7, {2-methyl-4-[2-(4-trifluoromethylphenyl)-pyrimidin-4-yl-methylthio]phenoxy}-acetic acid], 159.3 to 160.2 °C.
Still for that read-out and setting: with `O=C(O)CCc1ccc(OCc2ccnc(-c3ccc(F)cc3)n2)cc1` [Example 1, 3-{4-[2-(4-fluorophenyl)-pyrimidin-4-yl-methoxy]-phenyl}-propionic acid] the figure was 167.2 to 168 °C; with `O=C(O)CCc1ccc(OCc2ccnc(-c3ccc(Br)cc3)n2)cc1` [Example 3, 3-{4-[2-(4-bromophenyl)-pyrimidin-4-yl-methoxy]-phenyl}-propionic acid], 168 to 168.8 °C.
